The record followed here is patent publication US20150299188A1, “HETEROCYCLIC COMPOUND” (priority 2012, published 2015).

The experiment concerns FLAP (5-lipoxygenase activating protein). As to the kind of experiment: In vitro binding test: displacement of [3H]-7-chloro-3-(5-((3-fluoropyridin-2-yl)methoxy)-2-methylphenyl)-3,4-dihydroquinazolin-2(1H)-one from Sf9 microsome fractions. The following applies: Sf9 microsome fractions expressing FLAP; 100% = radioligand binding with 10 μM sodium 3-(3-(tert-butylsulfanyl)-1-(4-chlorobenzyl)-5-isopropyl-1H-indol-2-yl)-2,2-dimethylpropanoate, 0% = DMSO; test compound concentration not given. The arrangement: species or system human and mouse. The gist of the method: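 Sf9 microsomes expressing human or mouse FLAP (2 μg/mL) preincubated with compound 10 min at room temperature, then 120 nM tritiated quinazolinone ligand added for 60 min; buffer 100 mM Tris-HCl pH 7.5 with NaCl, EDTA, DTT, glycerol, Tween20. Bound ligand filtered and counted by scintillation; 10 μM indole propanoate defines 100% inhibition, DMSO 0%.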
On to `Cc1cc2c(cc1N1Cc3c(cc(Oc4ccnn4C)nc3C3CC3)NC1=O)OC(c1ncccc1F)CC2` (stereo not drawn) [Example 141, 5-cyclopropyl-3-(2-(3-fluoropyridin-2-yl)-6-methyl-3,4-dihydro-2H-chromen-7-yl)-7-((1-methyl-1H-pyrazol-5-yl)oxy)-3,4-dihydropyrido[4,3-d]pyrimidin-2(1H)-one], for which the “inhibitory rate (%)” value is 102%. In the case of `Cc1ccc(OCc2ncccc2F)cc1-n1c(=O)[nH]c2cccc(F)c2c1=O` [Example 359, 5-fluoro-3-(5-((3-fluoropyridin-2-yl)methoxy)-2-methylphenyl)quinazoline-2,4(1H,3H)-dione] it was 97%; in that of `Cc1cc2c(cc1N1Cc3c(Cl)cnc(-c4c(C)noc4C)c3NC1=O)OC(c1ncccc1F)CC2` (single isomer, unassigned; (-)) [Example 11, (−)-5-chloro-8-(3,5-dimethyl-1,2-oxazol-4-yl)-3-(2-(3-fluoropyridin-2-yl)-6-methyl-3,4-dihydro-2H-chromen-7-yl)-3,4-dihydropyrido[3,4-d]pyrimidin-2(1H)-one], 109%. For the compound `Cc1n[nH]c(-c2cc3c(c(C4CC4)n2)CN(c2cc4c(cc2Cl)CCC(c2ncccc2F)O4)C(=O)N3)n1` (stereo not drawn) [Example 119, 3-(6-chloro-2-(3-fluoropyridin-2-yl)-3,4-dihydro-2H-chromen-7-yl)-5-cyclopropyl-7-(3-methyl-1H-1,2,4-triazol-5-yl)-3,4-dihydropyrido[4,3-d]pyrimidin-2(1H)-one], the “inhibitory rate (%)” value was determined as 107%.

Take `O=c1[nH]c2ccccc2c(=O)n1-c1cc(OCc2ncccc2F)ccc1Cl` [Example 344, 3-(2-chloro-5-((3-fluoropyridin-2-yl)methoxy)phenyl)quinazoline-2,4(1H,3H)-dione]: the “inhibitory rate (%)” value is 114%. For `Cc1ccc(OCc2ncccc2Cl)cc1N1Cc2ccccc2NC1=O` [Example 187, 3-(5-((3-chloropyridin-2-yl)methoxy)-2-methylphenyl)-3,4-dihydroquinazolin-2(1H)-one], the “inhibitory rate (%)” value is reported as 103%.
